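Five concentrations, 48 hours, 96-well plates. The concentration for 50% growth inhibition is given as GI50.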 Active and inactive are the calls of the source. Cut-off read from the data, not from the text of the source: active = GI50 up to about 1.1 µM and inactive = higher.
Key:
Experiment in all cases: inhibition of tumour cell growth, NCI panel, 48 h
SF-268 = system: SF-268
UO-31 = system: UO-31
SK-MEL-5 = system: SK-MEL-5
HCC 2998 = system: HCC 2998
T47D = system: T47D
NCI-H23 = system: NCI-H23
MCF7 = system: MCF7
NCI-H460 = system: NCI-H460
DU-145 = system: DU-145
UACC-62 = system: UACC-62
KM12 = system: KM12
OVCAR-3 = system: OVCAR-3
NCI-H226 = system: NCI-H226
OVCAR-5 = system: OVCAR-5
K562 = system: K562
MDA-MB-231 = system: MDA-MB-231
SK-MEL-28 = system: SK-MEL-28
Hs-578T = system: Hs-578T
CAKI-1 = system: CAKI-1
M14 = system: M14
OVCAR-8 = system: OVCAR-8
HT-29 = system: HT-29
SNB-75 = system: SNB-75
A498 = system: A498
CCRF-CEM = system: CCRF-CEM
Malme-3M = system: Malme-3M
NCI-H522 = system: NCI-H522
HCT-116 = system: HCT-116
BT-549 = system: BT-549
ACHN = system: ACHN
SR = system: SR
MDA-MB-435 = system: MDA-MB-435
RXF 393 = system: RXF 393
SF-539 = system: SF-539
HL-60 = system: HL-60
COLO 205 = system: COLO 205
TK-10 = system: TK-10
NCI/ADR-RES = system: NCI/ADR-RES
U-251 = system: U-251
IGROV-1 = system: IGROV-1
OVCAR-4 = system: OVCAR-4
SN12C = system: SN12C
SK-MEL-2 = system: SK-MEL-2
LOX IMVI = system: LOX IMVI
786-0 = system: 786-0
SF-295 = system: SF-295
PC-3 = system: PC-3
SK-OV-3 = system: SK-OV-3
MDA-N = system: MDA-N
HOP-92 = system: HOP-92
HCT-15 = system: HCT-15
SNB-19 = system: SNB-19
EKVX = system: EKVX
RPMI-8226 = system: RPMI-8226
A549 = system: A549
SW-620 = system: SW-620
HOP-62 = system: HOP-62
UACC-257 = system: UACC-257
MOLT-4 = system: MOLT-4

SMILES: N#CS/C(C(Cl)=C(Cl)Cl)=C(/Cl)[N+](=O)[O-]
- GI50 (SF-268): 3.17 µM (inactive)
- GI50 (UO-31): 1.63 µM (inactive)
- GI50 (SK-MEL-5): 2.53 µM (inactive)
- GI50 (HCC 2998): 18.6 µM (inactive)
- GI50 (T47D): 1.99 µM (inactive)
- GI50 (NCI-H23): 2.7 µM (inactive)
- GI50 (MCF7): 3.9 µM (inactive)
- GI50 (NCI-H460): 13.7 µM (inactive)
- GI50 (DU-145): 13.8 µM (inactive)
- GI50 (UACC-62): 4.26 µM (inactive)
- GI50 (KM12): 9.64 µM (inactive)
- GI50 (OVCAR-3): 1.53 µM (inactive)
- GI50 (NCI-H226): 7.66 µM (inactive)
- GI50 (OVCAR-5): 1.7 µM (inactive)
- GI50 (K562): 603 nM (active)
- GI50 (MDA-MB-231): 3.1 µM (inactive)
- GI50 (SK-MEL-28): 1.76 µM (inactive)
- GI50 (Hs-578T): 6.1 µM (inactive)
- GI50 (CAKI-1): 977 nM (active)
- GI50 (M14): 1.31 µM (inactive)
- GI50 (OVCAR-8): 1.75 µM (inactive)
- GI50 (HT-29): 1.9 µM (inactive)
- GI50 (SNB-75): 17.4 µM (inactive)
- GI50 (A498): 17.1 µM (inactive)
- GI50 (CCRF-CEM): 284 nM (active)
- GI50 (Malme-3M): 1.58 µM (inactive)
- GI50 (NCI-H522): 1.04 µM (active)
- GI50 (HCT-116): 1.5 µM (inactive)
- GI50 (BT-549): 2.24 µM (inactive)
- GI50 (ACHN): 1.64 µM (inactive)
- GI50 (SR): 778 nM (active)
- GI50 (MDA-MB-435): 1.66 µM (inactive)
- GI50 (RXF 393): 1.4 µM (inactive)
- GI50 (SF-539): 6.44 µM (inactive)
- GI50 (HL-60): 219 nM (active)
- GI50 (COLO 205): 1.49 µM (inactive)
- GI50 (TK-10): 2.23 µM (inactive)
- GI50 (NCI/ADR-RES): 3.88 µM (inactive)
- GI50 (U-251): 14.1 µM (inactive)
- GI50 (IGROV-1): 2.32 µM (inactive)
- GI50 (OVCAR-4): 1.95 µM (inactive)
- GI50 (SN12C): 2.21 µM (inactive)
- GI50 (SK-MEL-2): 4.52 µM (inactive)
- GI50 (LOX IMVI): 904 nM (active)
- GI50 (786-0): 1.68 µM (inactive)
- GI50 (SF-295): 22.2 µM (inactive)
- GI50 (PC-3): 5.33 µM (inactive)
- GI50 (SK-OV-3): 17 µM (inactive)
- GI50 (MDA-N): 1.8 µM (inactive)
- GI50 (HOP-92): 2.37 µM (inactive)
- GI50 (HCT-15): 2320 nM
- GI50 (SNB-19): 20.2 µM (inactive)
- GI50 (EKVX): 4.46 µM (inactive)
- GI50 (RPMI-8226): 900 nM (active)
- GI50 (A549): 21 µM (inactive)
- GI50 (SW-620): 1.78 µM (inactive)
- GI50 (HOP-62): 15.4 µM (inactive)
- GI50 (UACC-257): 1.75 µM (inactive)
- GI50 (MOLT-4): 600 nM (active)

Reference: ChEMBL document CHEMBL1201862, “PubChem BioAssay data set” (2004)
